Test results taken from patent US20160355483A1, “COMPOUND BINDING TO PPARG BUT NOT ACTING AS PROMOTER AND PHARMACEUTICAL COMPOSITION FOR TREATING PPARG-RELATED DISEASES CONTAINING SAME AS ACTIVE INGREDIENT” (Hyundai Pharm Co., Ltd., priority 2014, published 2016).

These compounds were tested against T1, PPARG (peroxisome proliferator activated receptor-gamma), GST-PPARG-LBD (Homo sapiens, UniProt P37231) (assay: LanthaScreen TR-FRET PPARG Competitive Binding Assay). Conditions: degree of binding activity.
T1 construct: 15 μL of 5 nM GST-PPARG-LBD and 5 nM Tb-GST-antibody were added; purchased Invitrogen PV4894
T1 sequence (P37231 238-503 limits assumed): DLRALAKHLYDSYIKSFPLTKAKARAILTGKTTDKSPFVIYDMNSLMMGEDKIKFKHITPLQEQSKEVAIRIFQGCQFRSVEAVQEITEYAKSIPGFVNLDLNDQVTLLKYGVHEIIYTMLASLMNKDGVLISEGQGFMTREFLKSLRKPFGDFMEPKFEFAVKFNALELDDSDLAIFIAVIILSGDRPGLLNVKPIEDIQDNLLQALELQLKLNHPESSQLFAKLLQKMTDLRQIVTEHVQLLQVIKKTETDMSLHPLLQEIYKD
Parameters: key: “+” indicates the degree of the binding activity, and as the number of “+” increases, the binding activity is stronger; ++: “+” indicates the degree of the binding activity, and as the number of “+” increases, the binding activity is stronger; +++: “+” indicates the degree of the binding activity, and as the number of “+” increases, the binding activity is stronger; ++++: “+” indicates the degree of the binding activity, and as the number of “+” increases, the binding activity is stronger
Method in brief: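 GST-tagged human PPARG LBD in a TR-FRET competitive binding kit, 1 h at room temperature. Read-out is the 518/488 nm emission ratio (340 nm excitation); activity = 100% − compound ratio/vehicle ratio, compared with rosiglitazone.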

| Compound | Binding assay (1 μLM) |
| --- | --- |
| NC(=O)c1ccccc1-c1ccc(CN2CCOc3cc(C(=O)NCc4ccc5c(c4)OCCO5)ccc32)cc1 [Example 102, 4-((2′-carbamoyl-[1,1′-biphenyl]-4-yl)methyl)-N-((2,3-dihydrobenzo[b][1,4]dioxin-6-yl)methyl)-3,4-dihydro-2H-benzo[b][1,4]oxazine-7-carboxamide] | + |
| O=C(NCc1ccc2c(c1)OCCO2)c1ccc2c(c1)CCCN2Cc1ccc(-c2ccccc2C(=O)O)cc1 [Example 30, 4′-((6-(((2,3-dihydrobenzo[b][1,4]dioxin-6-yl)methyl)carbamoyl)-3,4-dihydroquinoline-1(2H)-yl)methyl)-[1,1′-biphenyl]-2-carboxylic acid] | +++ |
| O=C(NCc1ccccc1Br)c1ccc2c(c1)CCCN2Cc1ccc(-c2ccccc2C(=O)O)cc1 [Example 29, 4′-((6-((2-bromobenzyl)carbamoyl)-3,4-dihydroquinoline-1(2H)-yl)methyl)-[1,1′-biphenyl]-2-carboxylic acid] | ++++ |
| Cc1cc(F)ccc1[C@H](C)NC(=O)c1ccc2c(c1)OCCN2Cc1ccc(-c2ccccc2C(=O)O)cc1 [Example 79, (S)-4′-((7-((1-(4-fluoro-2-methylphenyl)ethyl)carbamoyl)-2H-benzo[b][1,4]oxazine-4(3H)-yl)methyl)-[1,1′-biphenyl]-2-carboxylic acid] | ++ |
| O=C(NCc1ccccc1Br)c1ccc2c(c1)OCCN2Cc1ccc(-c2ccccc2C(=O)O)cc1 [Example 92, 4′-((7-((2-bromobenzyl)carbamoyl)-2H-benzo[b][1,4]oxazine-4(3H)-yl)methyl)-[1,1′-biphenyl]-2-carboxylic acid] | +++ |
| O=C(NC1COc2ccccc2C1)c1ccc2c(c1)OCCN2Cc1ccc(-c2ccccc2C(=O)O)cc1 (stereo not shown) [Example 82] | +++ |
| C[C@H](NC(=O)c1ccc2c(c1)CCCN2Cc1cc(-c2ccccc2C(=O)O)ccc1F)c1ccc2ccccc2c1 [Example 137, (S)-4′-fluoro-3′-((6-((1-(naphthalene-2-yl)ethyl)carbamoyl)-3,4-dihydroquinoline-1(2)-yl)methyl)-[1,1′-biphenyl]-2-carboxylic acid] | ++++ |
| C[C@H](NC(=O)c1ccc2c(c1)CCCN2Cc1ccc(-c2ccccc2C(=O)O)cc1F)c1ccccc1 [Example 106] | ++++ |
| C[C@H](NC(=O)c1ccc2c(c1)OCCN2Cc1ccc(-c2ccccc2C(=O)O)c(F)c1)c1ccc2ccccc2c1 [Example 163, (S)-2′-fluoro-4′-((7-((1-(naphthalene-2-yl)ethyl)carbamoyl)-2H-benzo[b][1,4]oxazine-4(3H)-yl)methyl)-[1,1′-biphenyl]-2-carboxylic acid] | +++ |
| C[C@H](NC(=O)c1ccc2c(c1)OCCN2Cc1ccc(-c2ccccc2C(=O)O)cc1)c1c(F)cccc1F [Example 83, (S)-4′-((7-((1-(2,6-fluorophenyl)ethyl)carbamoyl)-2H-benzo[b][1,4]oxazine-4(3H)-yl)methyl)-[1,1′-biphenyl]-2-carboxylic acid] | ++ |
| C[C@H](NC(=O)c1ccc2c(c1)CCCN2Cc1cccc(-c2ccccc2C(=O)O)c1)c1ccc([N+](=O)[O-])cc1 [Example 119, (S)-3′-((6-((1-(4-nitrophenyl)ethyl)carbamoyl)-3,4-dihydroquinoline-1(2H)-yl)methyl)-[1,1′-biphenyl]-2-carboxylic acid] | ++ |
| NC(=O)c1ccccc1-c1ccc(CN2CCCc3cc(C(=O)NCc4ccncc4)ccc32)cc1 [Example 48, 1-((2′-carbamoyl-[1,1′-biphenyl]-4-yl)methyl)-N-(pyridine-4-ylmethyl)-1,2,3,4-tetrahydroquinoline-6-carboxamide] | + |
| C[C@H](NC(=O)c1ccc2c(c1)CCCN2Cc1ccc(-c2ccccc2C(=O)O)cc1)c1c(F)cccc1F [Example 16, (S)-4′-((6-((1-(2,6-fluorophenyl)ethyl)carbamoyl)-3,4-dihydroquinoline-1 (2H)-yl)methyl)-[1,1′-biphenyl]-2-carboxylic acid] | +++ |
| NC(=O)c1ccccc1-c1ccc(CN2CCCc3cc(C(=O)NCc4ccccc4Br)ccc32)cc1 [Example 51, N-(2-bromobenzyl)-1-((2′-carbamoyl-[1,1′-biphenyl]-4-yl)methyl)-1,2,3,4-tetrahydroquinoline-6-carboxamide] | +++ |
| Cc1ccc([C@H](C)NC(=O)c2ccc3c(c2)OCCN3Cc2ccccc2-c2ccc(C(=O)O)cc2)cc1F [Example 145, (S)-2′-((7-((1-(3-fluoro-4-methylphenyl)ethyl)carbamoyl)-2H-benzo[b][1,4]oxazine-4(3H)-yl)methyl)-[1,1′-biphenyl]-4-carboxylic acid] | ++ |
| C[C@H](NC(=O)c1ccc2c(c1)CCCN2Cc1cc(-c2ccccc2C(N)=O)ccc1F)c1ccc2ccccc2c1 [Example 140, (S)-1-((2′-carbamoyl-4-fluoro-[1,1′-biphenyl]-3-yl)methyl)-N-(1-(naphthalene-2-yl)ethyl)-1,2,3,4-tetrahydroquinoline-6-carboxamide] | ++++ |
| Cc1ccc([C@H](C)NC(=O)c2ccc3c(c2)CCCN3Cc2ccc(-c3ccccc3C(=O)O)cc2)cc1F [Example 5, (S)-4′-((6-((1-(3-fluoro-4-methylphenyl)ethyl)carbamoyl)-3,4-dihydroquinoline-1(2H)-yl)methyl)-[1,1′-biphenyl]-2-caboxylic acid] | ++ |

Second part, the compound after the results:

| Binding assay (1 μLM) | Compound |
| --- | --- |
| ++++ | C[C@H](NC(=O)c1ccc2c(c1)CCCN2Cc1ccc(-c2ccccc2C(=O)O)cc1)c1ccc(SC(F)(F)F)cc1 [Example 13, (S)-4′-((6-((1-(4-((trifluoromethyl)thio)phenyl)ethyl)carbamoyl)-3,4-dihydroquinoline-1 (2H)-yl)methyl)-[1,1′-biphenyl]-2-carboxylic acid] |
| +++ | C[C@H](NC(=O)c1ccc2c(c1)CCCN2Cc1ccc(-c2ccccc2C(N)=O)cc1)c1ccc(Br)cc1 [Example 37, (S)—N-(1-(4-bromophenyl)ethyl)-1-((2′-carbamoyl-[1,1′-biphenyl]-4-yl)methyl)-1,2,3,4-tetrahydroquinoline-6-carboxamide] |
| +++ | C[C@H](NC(=O)c1ccc2c(c1)CCCN2Cc1ccc(-c2ccccc2C(=O)O)cc1)c1ccccc1 [Example 1, (S)-4′-((6-((1-phenylethyl)carbamoyl)-3,4-dihydroquinoline-1(2H)-yl)methyl)-[1,1′-biphenyl]-2-carboxylic acid] |
| +++ | C[C@H](NC(=O)c1ccc2c(c1)CCCN2Cc1ccc(-c2ccccc2C(N)=O)cc1)c1ccccc1 [Example 2, (S)-1-((2′-carbamoyl-[1,1′-biphenyl]-4-yl)methyl)-N-(1-phenylethyl)-1,2,3,4-tetrahydroquinoline-6-carboxamide] |
| + | C[C@H](NC(=O)c1ccc2c(c1)OCCN2Cc1ccccc1-c1ccc(C(N)=O)cc1)c1ccc(C#N)cc1 [Example 149, (S)-4-((4′-carbamoyl-[1,1′-biphenyl]-2-yl)methyl)-N-(1-(4-cyanophenyl)ethyl)-3,4-dihydro-2H-benzo[b][1,4]oxazine-7-carboxamide] |
| ++ | C[C@H](NC(=O)c1ccc2c(c1)CCCN2Cc1ccccc1-c1ccc(C(N)=O)cc1)c1ccc(C#N)cc1 [Example 161, (S)-1-((4′-carbamoyl-[1,1′-biphenyl]-2-yl)methyl)-N-(1-(4-cyanophenyl)ethyl)-1,2,3,4-tetrahydroquinoline-6-carboxamide] |
| ++++ | C[C@H](NC(=O)c1ccc2c(c1)CCCN2Cc1ccc(-c2ccccc2C(N)=O)cc1)c1ccc(OC(F)(F)F)cc1 [Example 34, (S)-1-((2′-carbamoyl-[1,1′-biphenyl]-4-yl)methyl)-N-(1-(4-(trifluoromethoxy)phenyl)ethyl)-1,2,3,4-tetrahydroquinoline-6-carboxamide] |
| +++ | C[C@H](NC(=O)c1ccc2c(c1)CCCN2Cc1ccc(-c2ccccc2C(N)=O)cc1F)c1ccc(C#N)cc1 [Example 112, (S)-1-((2′-carbamoyl-3-fluoro-[1,1′-biphenyl]-4-yl)methyl)-N-(1-(4-cyanophenyl)ethyl)-1,2,3,4-tetrahydroquinoline-6-carboxamide] |
| +++ | C[C@H](NC(=O)c1ccc2c(c1)CCCN2Cc1ccc(-c2ccccc2C(N)=O)cc1)c1cccc(OC(F)(F)F)c1 [Example 46, (S)-1-((2′-carbamoyl-[1,1′-biphenyl]-4-yl)methyl)-N-(1-(3-(trifluoromethoxy)phenyl)ethyl)-1,2,3,4-tetrahydroquinoline-6-carboxamide] |
| +++ | COc1ccccc1[C@H](C)NC(=O)c1ccc2c(c1)CCCN2Cc1ccc(-c2ccccc2C(N)=O)cc1 [Example 41, (S)-1-((2′-carbamoyl-[1,1′-biphenyl]-4-yl)methyl)-N-(1-(2-methoxyphenyl)ethyl)-1,2,3,4-tetrahydroquinoline-6-carboxamide] |
| ++ | C[C@H](NC(=O)c1ccc2c(c1)OCCN2Cc1ccccc1-c1ccc(C(=O)O)cc1)c1ccccc1 [Example 142, (S)-2′-((7-((1-phenylethyl)carbamoyl)-2H-benzo[b][1,4]oxazine-4(3H)-yl)methyl)-[1,1′-biphenyl]-4-carboxylic acid] |
